Assays:
human NHE-3 = target: T1, human NHE-3 (Homo sapiens, UniProt P48764); assay: Cell-based assay of NHE-3 activity (human NHE3 inhibition assay); conditions: OK cells with human NHE-3 gene, BCECF pH dye, 0-30 μM test compound
T1 construct: expressed in transfected cells; host or cells: Opossum kidney (OK) cells (ATCC), transfected by electroporation
T1 sequence (P48764 26-834): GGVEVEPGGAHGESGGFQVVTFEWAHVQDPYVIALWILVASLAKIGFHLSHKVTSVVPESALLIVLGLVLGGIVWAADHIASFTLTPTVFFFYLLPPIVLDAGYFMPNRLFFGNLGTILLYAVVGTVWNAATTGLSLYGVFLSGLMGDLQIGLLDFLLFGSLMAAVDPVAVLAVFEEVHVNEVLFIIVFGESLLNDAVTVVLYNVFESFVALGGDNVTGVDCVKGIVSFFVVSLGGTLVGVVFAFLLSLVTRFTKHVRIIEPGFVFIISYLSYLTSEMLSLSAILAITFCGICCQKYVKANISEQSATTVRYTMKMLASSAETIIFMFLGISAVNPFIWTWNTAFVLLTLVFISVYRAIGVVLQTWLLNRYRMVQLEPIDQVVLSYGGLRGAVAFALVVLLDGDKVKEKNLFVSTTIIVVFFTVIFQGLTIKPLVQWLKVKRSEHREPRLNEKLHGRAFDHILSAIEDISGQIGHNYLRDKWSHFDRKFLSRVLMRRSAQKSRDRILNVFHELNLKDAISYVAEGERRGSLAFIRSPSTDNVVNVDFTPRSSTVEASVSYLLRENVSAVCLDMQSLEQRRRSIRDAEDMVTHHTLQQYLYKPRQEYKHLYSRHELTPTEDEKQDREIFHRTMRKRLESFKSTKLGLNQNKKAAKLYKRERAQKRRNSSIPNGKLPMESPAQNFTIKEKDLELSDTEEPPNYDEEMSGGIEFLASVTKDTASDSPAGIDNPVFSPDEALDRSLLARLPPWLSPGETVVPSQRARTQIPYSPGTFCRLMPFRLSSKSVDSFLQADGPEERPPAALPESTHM
Procedure: (§1) Rat or human NHE-3-mediated Na^+-dependent H^+ antiport was measured using a modification of the pH sensitive dye method originally reported by Paradiso (Proc. Natl. Acad. Sci. USA. (1984) 81(23): 7436-7440). Opossum kidney (OK) cells were obtained from the ATCC and propagated per their instructions. The rat NHE-3 gene (GenBank M85300) or the human NHE-3 gene (GenBank NM_004174.1) was introduced into OK cells via electroporation, and cells were seeded into 96 well plates and grown overnight. Medium was aspirated from the wells, cells were washed twice with NaCl-HEPES buffer (100 mM NaCl, 50 mM HEPES, 10 mM glucose, 5 mM KCl, 2 mM CaCl2, 1 mM MgCl2, pH 7.4), then incubated for 30 min at room temperature with NH4Cl-HEPES buffer (20 mM NH4Cl, 80 mM NaCl, 50 mM HEPES, 5 mM KCl, 2 mM CaCl2, 1 mM MgCl2, pH 7.4) containing 5 μM bis(acetoxymethyl) 3,3′-(3′,6′-bis(acetoxymethoxy)-5-((acetoxymethoxy)carbonyl)-3-oxo-3H-spiro[isobenzofuran-1,9′-xanthene]-2′,7′-diyl)dipropanoate (BCECF-AM). Cells were washed twice with Ammonium free, Na^+-free HEPES (100 mM choline, 50 mM HEPES, 10 mM glucose, 5 mM KCl, 2 mM CaCl2, 1 mM MgCl2, pH 7.4) and incubated in the same buffer for 10 minutes at room temperature to lower intracellular pH. […] Initial rates were plotted as the average 2 or more replicates, and pIC50 values were estimated using GraphPad Prism.

Rat NHE-3 [1] = target: T2, Rat NHE-3 (Rattus norvegicus, UniProt P26433); assay: Cell-based assay of NHE-3 activity (rat NHE-3 prompt inhibition); conditions: OK cells with rat NHE-3 gene, compound present during pH recovery
T2 construct: expressed in transfected cells; host or cells: Opossum kidney (OK) cells (ATCC), transfected by electroporation
Procedure: as §1

Rat NHE-3 [2] = target: T2, Rat NHE-3; assay: Cell-based assay of NHE-3 activity (persistent inhibition, after washout); conditions: OK cells with rat NHE-3 gene, 60 min incubation, recovery initiated 40 min after compound washout
Procedure: The ability of compounds to inhibit Rat NHE-3-mediated Na^+-dependent H^+ antiport after application and washout was measured using a modification of the pH sensitive dye method described above in Example 74. Opossum kidney (OK) cells were obtained from the ATCC and propagated per their instructions. The rat NHE-3 gene was introduced into OK cells via electroporation, and cells were seeded into 96 well plates and grown overnight. Medium was aspirated from the wells, cells were washed twice with NaCl-HEPES buffer (100 mM NaCl, 50 mM HEPES, 10 mM glucose, 5 mM KCl, 2 mM CaCl2, 1 mM MgCl2, pH 7.4), then overlayed with NaCl-HEPES buffer containing 0-30 μM test compound. After a 60 min incubation, the test drug containing buffer was aspirated from the cells, cells were washed twice with NaCl-HEPES buffer without drug, then incubated for 30 min at room temperature with NH4Cl-HEPES buffer (20 mM NH4Cl, 80 mM NaCl, 50 mM HEPES, 5 mM KCl, 2 mM CaCl2, 1 mM MgCl2, pH 7.4) containing 5 μM BCECF-AM. Cells were washed twice with ammonium free, Na^+-free HEPES (100 mM choline, 50 mM HEPES, 10 mM glucose, 5 mM KCl, 2 mM CaCl2, 1 mM MgCl2, pH 7.4) and incubated in the same buffer for 10 minutes at room temperature to lower intracellular pH. […] Initial rates were plotted as the average 2 or more replicates, and pIC50 values were estimated using GraphPad Prism.

[3] = system: absorption of sodium from the intestinal lumen; assay: Inhibition of intestinal sodium absorption (urinary sodium and fecal form); format: in vivo, Sprague-Dawley rats; conditions: rat, 3 mg/kg oral gavage, urine 16 h post-dose; asterisks = significance vs vehicle (*P<0.05, **P<0.01, ***P<0.001); read-out: uNa (% of vehicle)
Procedure: Urinary sodium concentration and fecal form were measured to assess the ability of selected example compounds to inhibit the absorption of sodium from the intestinal lumen. Eight-week old Sprague-Dawley rats were purchased from Charles River Laboratories (Hollister, Calif.), were housed 2 per cage, and acclimated for at least 3 days before study initiation. Animals were fed Harlan Teklad Global 2018 rodent chow (Indianapolis, Ind.) and water ad libitum throughout the study and maintained in a standard light/dark cycle of 6 AM to 6 PM. On the day of the study, between 4 PM and 5 PM, a group of rats (n=6) were dosed via oral gavage with test compound at the dosage indicated or vehicle (water) at a volume of 10 mL/kg. After dose administration animals were placed in individual metabolic cages where they were also fed the same chow in meal form and watered ad libitum. At 16 h post-dose, the urine samples were collected and fecal form was assessed by two independent observations. Fecal forms were scored according to a common scale associated with increasing fecal water to the wettest observation in the cage's collection funnel (1, normal pellet; 2, pellet adhering to sides of collection funnel due to moisture; 3, loss of normal pellet shape; 4, complete loss of shape with a blotting pattern; 5, liquid fecal streams evident). A rat's fecal form score (FFS) was determined by averaging both observational scores for all rats within a group (n=6). In every study the vehicle group average was 1. For urine samples, the volumes were determined gravimetrically and centrifuged at 3,600×g. The supernatants were diluted 100-fold in deionized Milli-Q water then filtered through a 0.2 μm GHP Pall AcroPrep filter plate (Pall Life Sciences, Ann Arbor, Mich.) prior to analysis by ion chromatography. Ten microliters of each filtered extract was injected onto a Dionex ICS-3000 ion chromatograph system (Dionex, Sunnyvale, Calif.). Cations were separated by an isocratic method using 25 mM methanesulfonic acid as the eluent on an IonPac CS12A 2 mm i.d.×250 mm, 8 μm particle size cation exchange column (Dionex). Sodium was quantified using standards prepared from a cation standard mix containing Li^+, Na^+, NH4^+, K^+, Mg^2+, and Ca^2+ (Dionex). The mean mass of sodium urinated for every group in the 16 h period was determined with the vehicle group usually urinating approximately 21 mg sodium. The urine Na (uNa) for rats in the test groups were expressed as a percentage of the vehicle mean and the means were compared to that of the vehicle group by utilizing a one-way analysis of variance coupled with a Dunnett's post hoc test.

T2 sequence (P26433 29-831): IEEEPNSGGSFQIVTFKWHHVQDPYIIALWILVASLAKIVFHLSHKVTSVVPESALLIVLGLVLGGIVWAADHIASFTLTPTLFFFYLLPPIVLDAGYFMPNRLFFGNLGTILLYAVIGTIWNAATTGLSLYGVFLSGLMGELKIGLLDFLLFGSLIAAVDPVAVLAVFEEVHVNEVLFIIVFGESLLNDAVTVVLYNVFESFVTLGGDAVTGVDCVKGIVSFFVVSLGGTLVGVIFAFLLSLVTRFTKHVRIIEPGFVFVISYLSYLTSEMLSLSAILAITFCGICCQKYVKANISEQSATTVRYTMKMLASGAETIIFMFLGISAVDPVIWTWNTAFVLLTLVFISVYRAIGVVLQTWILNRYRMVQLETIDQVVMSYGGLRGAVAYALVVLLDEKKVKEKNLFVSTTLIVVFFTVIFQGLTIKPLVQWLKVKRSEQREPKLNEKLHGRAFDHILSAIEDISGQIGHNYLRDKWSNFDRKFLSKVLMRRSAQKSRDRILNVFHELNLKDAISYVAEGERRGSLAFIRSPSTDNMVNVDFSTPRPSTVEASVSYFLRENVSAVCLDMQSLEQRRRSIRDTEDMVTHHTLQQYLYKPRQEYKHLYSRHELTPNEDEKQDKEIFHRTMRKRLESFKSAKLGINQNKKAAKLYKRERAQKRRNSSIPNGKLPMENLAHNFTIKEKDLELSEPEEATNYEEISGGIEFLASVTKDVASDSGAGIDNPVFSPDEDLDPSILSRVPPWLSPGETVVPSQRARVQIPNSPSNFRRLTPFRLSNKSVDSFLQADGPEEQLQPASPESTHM

IC50 (human NHE-3; read-out: Human NHE3 pIC50 (converted)) | IC50 (Rat NHE-3 [1]; read-out: Rat NHE3 pIC50 (prompt) (converted)) | IC50 (Rat NHE-3 [2]; read-out: Rat NHE3 pIC50 (persistent) (converted)) | Human NHE3 pIC50 (human NHE-3) | Rat NHE3 pIC50 (prompt) (Rat NHE-3 [1]) | Rat NHE3 pIC50 (persistent) (Rat NHE-3 [2]) | Compound | response vs control in vivo at 3 mg/kg [3]
– | – | – | C (C NHE3 pIC50 > 7) | B (B NHE3 pIC50 5-7) | C (C NHE3 pIC50 > 7) | CN1Cc2c(Cl)cc(Cl)cc2[C@H](c2cccc(S(=O)(=O)NCCOCCOCCNC(=O)NCCN(CCNC(=O)NCCOCCOCCNS(=O)(=O)c3cccc([C@@H]4CN(C)Cc5c(Cl)cc(Cl)cc54)c3)C(=O)CCOCCOCCOCCOCCOCCC(=O)N(CCNC(=O)NCCOCCOCCNS(=O)(=O)c3cccc([C@@H]4CN(C)Cc5c(Cl)cc(Cl)cc54)c3)CCNC(=O)NCCOCCOCCNS(=O)(=O)c3cccc([C@@H]4CN(C)Cc5c(Cl)cc(Cl)cc54)c3)c2)C1 [Example 59] | –
– | – | – | C (C NHE3 pIC50 > 7) | B (B NHE3 pIC50 5-7) | B (B NHE3 pIC50 5-7) | CN1Cc2c(Cl)cc(Cl)cc2[C@H](c2cccc(S(=O)(=O)NCCOCCOCCNC(=O)NCCN(CCNC(=O)NCCOCCOCCNS(=O)(=O)c3cccc([C@@H]4CN(C)Cc5c(Cl)cc(Cl)cc54)c3)C(=O)CCOCCOCCOCCOCCOCCOCCOCCOCCOCCC(=O)N(CCNC(=O)NCCOCCOCCNS(=O)(=O)c3cccc([C@@H]4CN(C)Cc5c(Cl)cc(Cl)cc54)c3)CCNC(=O)NCCOCCOCCNS(=O)(=O)c3cccc([C@@H]4CN(C)Cc5c(Cl)cc(Cl)cc54)c3)c2)C1 [Example 61] | –

The next lines start with the compound.

Compound | IC50 (human NHE-3; read-out: Human NHE3 pIC50 (converted)) | IC50 (Rat NHE-3 [1]; read-out: Rat NHE3 pIC50 (prompt) (converted)) | IC50 (Rat NHE-3 [2]; read-out: Rat NHE3 pIC50 (persistent) (converted)) | Human NHE3 pIC50 (human NHE-3) | Rat NHE3 pIC50 (prompt) (Rat NHE-3 [1]) | Rat NHE3 pIC50 (persistent) (Rat NHE-3 [2]) | response vs control in vivo at 3 mg/kg [3]
CN1Cc2c(Cl)cc(Cl)cc2[C@H](c2cccc(S(=O)(=O)NCCOCCOCCNC(=O)CCC(CCC(=O)NCCOCCOCCNS(=O)(=O)c3cccc([C@@H]4CN(C)Cc5c(Cl)cc(Cl)cc54)c3)(CCC(=O)NCCOCCOCCNS(=O)(=O)c3cccc([C@@H]4CN(C)Cc5c(Cl)cc(Cl)cc54)c3)NS(C)(=O)=O)c2)C1 [Example 5, N^1,N^7-bis(2-(2-(2-(3-((S)-6,8-dichloro-2-methyl-1,2,3,4-tetrahydroisoquinolin-4-yl)phenylsulfonamido)ethoxy)ethoxy)ethyl)-4-(3-(2-(2-(2-(3-((S)-6,8-dichloro-2-methyl-1,2,3,4-tetrahydroisoquinolin-4-yl)phenylsulfonamido)ethoxy)ethoxy)ethylamino)-3-oxopropyl)-4-(methylsulfonamido)heptanediamide] | 100 to 10000 nM | 100 to 10000 nM | < 100 nM | – | – | – | 35 to 75%
CN1Cc2c(Cl)cc(Cl)cc2[C@H](c2cccc(S(=O)(=O)NCCOCCOCCOCCNC(=O)CN(CCN(CC(=O)NCCOCCOCCOCCNS(=O)(=O)c3cccc([C@@H]4CN(C)Cc5c(Cl)cc(Cl)cc54)c3)CC(=O)NCCOCCOCCOCCNS(=O)(=O)c3cccc([C@@H]4CN(C)Cc5c(Cl)cc(Cl)cc54)c3)CCN(CC(=O)NCCOCCOCCOCCNS(=O)(=O)c3cccc([C@@H]4CN(C)Cc5c(Cl)cc(Cl)cc54)c3)CC(=O)NCCOCCOCCOCCNS(=O)(=O)c3cccc([C@@H]4CN(C)Cc5c(Cl)cc(Cl)cc54)c3)c2)C1 [Example 49] | – | – | – | B (B NHE3 pIC50 5-7) | B (B NHE3 pIC50 5-7) | B (B NHE3 pIC50 5-7) | –
CN1Cc2c(Cl)cc(Cl)cc2[C@H](c2cccc(S(=O)(=O)NCCOCCOCCOCCNC(=O)NCCCN(CCCNC(=O)NCCOCCOCCOCCNS(=O)(=O)c3cccc([C@@H]4CN(C)Cc5c(Cl)cc(Cl)cc54)c3)CCCNC(=O)NCCOCCOCCOCCNS(=O)(=O)c3cccc([C@@H]4CN(C)Cc5c(Cl)cc(Cl)cc54)c3)c2)C1 [Example 51] | – | – | – | C (C NHE3 pIC50 > 7) | C (C NHE3 pIC50 > 7) | C (C NHE3 pIC50 > 7) | –
CN1Cc2c(Cl)cc(Cl)cc2[C@H](c2cccc(S(=O)(=O)NCCOCCOCCN(C)C(=O)CCC(CCC(=O)N(C)CCOCCOCCNS(=O)(=O)c3cccc([C@@H]4CN(C)Cc5c(Cl)cc(Cl)cc54)c3)(CCC(=O)N(C)CCOCCOCCNS(=O)(=O)c3cccc([C@@H]4CN(C)Cc5c(Cl)cc(Cl)cc54)c3)NC(=O)NCC(=O)O)c2)C1 [Example 69] | – | – | – | C (C NHE3 pIC50 > 7) | C (C NHE3 pIC50 > 7) | C (C NHE3 pIC50 > 7) | –
